Measurements taken from paper PMC8962522, “Direct interaction of TrkA/CD44v3 is essential for NGF-promoted aggressiveness of breast cancer cells” (Journal of Experimental & Clinical Cancer Research : CR, 2022).

Columns and labels:
MDA-MB-231 cells [1] = assay: Scratch/wound migration assay, MDA-MB-231; type: cell-based; settings: peptide 50 ng/mL 30 min before NGF 100 ng/ml; 24 h, 0.1% FBS; siCD44v3 24 h after treatment
Experimental: Scratch/wound migration assays were performed using inserts (Ibidi, Germany). MDA-MB-231 cells (4 × 10^5 cells/mL) were seeded onto each side of the chamber and incubated overnight at 37 °C until they reached the subconfluent stage. Next, the inserts were removed, and the cells were rinsed and starved (1 mL of 0.1% FBS medium for 1 h). Images of the initial wound were obtained using an inverted microscope, and the cells were incubated with or without the peptide (scramble or P4; 50 ng/mL) for 30 min and stimulated with NGF (100 ng/ml). After 24 h, images (2/wound) were obtained of the same place on the wound as those initially taken. The distance between the 2 migration fronts was measured using ImageJ software.
(§1) Fig. 4 CD44v3 mimetic peptide 4 inhibits MDA-MB-231 breast cancer cell growth and migration/invasion. Clonogenic MDA-MB-231 cell growth was measured after 10 days in the presence of a scramble peptide (SP) or CD44v3 mimetic peptide (P4) (A, B). The elongation factor (length-to-width ratio) was assessed after 10 days in the presence or absence of NGF (C, D, E). Migration assays were performed using Ibidi devices 24 h after treatment (H, I). Invasion through collagen 1 was measured by the Transwell assay 16 h after treatment (J, K). Statistical analyses were performed using one-way ANOVA followed by Bonferroni’s posttest. […]

[2] = system: MDA-MB-231 xenograft tumors; assay: MDA-MB-231 xenograft tumor growth in SCID mice; type: in vivo; settings: injected near the tumor five times in a 3-day interval, from mean tumor volume 100 mm^3; versus PBS; 10 mice per group
Experimental: MDA-MB-231 cells (2 × 10^6) were subcutaneously injected into the flanks of six-week-old female SCID mice. One month after injection, the mice were randomized into 2 groups and injected near the tumor with CD44v3 mimetic peptide 4 (P4) or not (control) five times in a 3-day interval. Tumor volume was determined throughout the experiment by measuring the length (l) and width (w) and was calculated as π/6 × l × w × […]. Animals were sacrificed using isoflurane anesthesia when the tumors reached a similar size, and the organs were immediately removed and stored in liquid nitrogen.
To assess the role of TrkA/CD44v3 in vivo, SCID mice were injected with MDA-MB-231 cells to generate xenografts. Primary tumor development and metastasis (to the lung, brain and liver) were analyzed (Fig. 6). […] The development of primary tumors was measured throughout the experiments. […] We also assessed the metastatic burden. […] Micrometastases were detected at the end of the experiment by PCR of human microglobulin in xenograft mice treated with or without the CD44v3 mimetic peptide (Fig. 6E). […]
Fig. 6 CD44v3 mimetic peptide 4 blocks MDA-MB-231 tumor growth and metastasis. […] Body weight (B) and tumor volume (C) were measured following CD44v3 mimetic peptide administration (10 mice per group). […]

MDA-MB-231 cells [3] = assay: Elongation factor (length-to-width ratio), MDA-MB-231; type: cell-based; settings: MDA-MB-231, with NGF
Experimental: Therefore, in this study, we assessed TrkA binding to CD44v3 in MDA-MB-231 cells, which were used as TNBC model cells. First, PLA was performed using anti-CD44 variant 3- (Fig. 3A and Supplementary Fig. 7) or anti-CD44 variant 6-specific antibodies (Fig. 3B). […] Next, we tested the ability of CD44v3 mimetic peptides to block TrkA/CD44v3 complex formation in MDA-MB-231 cells (Fig. 3C-E). […] Therefore, we evaluated the physiological consequences of TrkA/CD44v3 complex dissociation induced by CD44v3 mimetic peptide 4 on MDA-MB-231 cell phenotypes (Fig. 4). We first examined the effect of mimetic peptide 4 on clonogenic cell growth. For this experiment, MDA-MB-231 cells were grown in the presence of 2% FBS for […] in the presence or absence of CD44v3 mimetic peptide 4 (Fig. 4A and B). […] We first determined the effect of CD44v3 on the length-to-width (l/w) ratio of the cells (elongation factor) (Fig. 4C-E). […]
as §1, with “Migration assays were performed using Ibidi devices 24 h after treatment (H, I).” left out, “K).” for “K). Statistical analyses were performed using one-way ANOVA followed by Bonferroni’s posttest.”

Substance | effect on migration (wound closure) of MDA-MB-231 cells (MDA-MB-231 cells [1]) | tumor growth (in words) [2] | effect on length-to-width (l/w) ratio (elongation factor) (MDA-MB-231 cells [3])
IDDDEDFISST [Peptide 4, mimetic peptide 4 (…) corresponding to the C-terminal region of CD44v3] | completely blocked NGF-dependent wound closure | significantly inhibited the growth of MDA-MB-231 cells in xenograft tumors | This effect of NGF was inhibited
NGF: recombinant human β-NGF (Alomone Labs, Israel) | the migration of MDA-MB-231 cells was increased, as indicated by complete wound closure 24 h after treatment | – | significant increase in the l/w ratio
